This note sets out measurements from ChEMBL document CHEMBL3286330, “Multivalent design of long-acting β(2)-adrenoceptor agonists incorporating biarylamines” (Bioorg Med Chem Lett, 2014).

T1 sequence (P07550 whole entry): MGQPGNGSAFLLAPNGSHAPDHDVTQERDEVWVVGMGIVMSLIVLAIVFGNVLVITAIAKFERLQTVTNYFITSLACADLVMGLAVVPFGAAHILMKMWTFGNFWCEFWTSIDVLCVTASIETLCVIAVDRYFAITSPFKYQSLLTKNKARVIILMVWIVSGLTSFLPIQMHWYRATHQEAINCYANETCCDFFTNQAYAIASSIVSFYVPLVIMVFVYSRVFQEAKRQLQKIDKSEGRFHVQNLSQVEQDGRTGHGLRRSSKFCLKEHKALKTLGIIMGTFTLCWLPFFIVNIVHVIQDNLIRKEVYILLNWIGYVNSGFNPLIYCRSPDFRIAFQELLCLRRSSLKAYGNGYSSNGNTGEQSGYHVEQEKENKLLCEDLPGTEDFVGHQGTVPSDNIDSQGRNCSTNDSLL
Beta-1 adrenergic receptor, sequence (P08588 whole entry): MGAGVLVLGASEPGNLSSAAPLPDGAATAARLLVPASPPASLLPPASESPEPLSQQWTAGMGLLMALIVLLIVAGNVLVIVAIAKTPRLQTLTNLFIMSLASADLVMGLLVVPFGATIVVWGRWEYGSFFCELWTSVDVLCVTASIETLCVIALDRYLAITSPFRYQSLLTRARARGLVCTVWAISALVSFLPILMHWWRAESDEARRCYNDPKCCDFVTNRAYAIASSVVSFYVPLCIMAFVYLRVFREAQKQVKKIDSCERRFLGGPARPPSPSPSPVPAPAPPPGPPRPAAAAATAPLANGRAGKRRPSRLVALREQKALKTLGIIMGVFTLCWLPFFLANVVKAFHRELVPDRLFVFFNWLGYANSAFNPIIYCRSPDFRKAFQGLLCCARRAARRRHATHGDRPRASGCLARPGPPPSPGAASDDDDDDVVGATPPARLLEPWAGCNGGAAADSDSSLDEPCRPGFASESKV

For one assay, the species on record is Homo sapiens. Description: Selectivity ratio Ki for beta1 receptor (unknown origin) to Ki for beta2 receptor (unknown origin).
In the case of `CC(C)Oc1ccc(Nc2ccc(CCNCC(O)c3ccc(O)c(CO)c3)cc2)cc1` (racemic), the Ratio Ki amounted to 158.
For the compound `OCc1cc(C(O)CNCCc2ccc(Nc3cccc(-c4ccccc4)c3)cc2)ccc1O` (racemic), the Ratio Ki stood at 40.
The same measure, in the same setting: for `OCc1cc(C(O)CNCCc2ccc(Nc3ccc(Oc4ccccc4)cc3)cc2)ccc1O` (racemic) the value was 16; for `OCc1cc(C(O)CNCCc2ccc(Nc3ccc(O)cc3)cc2)ccc1O` (racemic), 23; for `OCc1cc(C(O)CNCCc2ccc(N3CCC(Cc4ccccc4)CC3)cc2)ccc1O` (racemic), 4.8.
Same read-out and setting: then `COc1ccc(Nc2ccc(CCNCC(O)c3ccc(O)c(CO)c3)cc2)cc1` (racemic), with 27.
Same read-out and setting: then `OCc1cc(C(O)CNCCc2ccc(N3CCC(CCCc4ccccc4)CC3)cc2)ccc1O` (racemic), with 0.6; and `COC(=O)c1ccc(Nc2ccc(CCNCC(O)c3ccc(O)c(CO)c3)cc2)cc1` (racemic), with 36.

Another assay concerns the target T1, Beta-2 adrenergic receptor (Homo sapiens, UniProt P07550). The assay is described as follows: Agonist activity at human recombinant beta2 receptor assessed as cAMP accumulation by radioimmunoassay and cell based assay. The class given is functional. In general terms: cAMP levels reflect the balance of adenylyl cyclase and phosphodiesterase activity.
For `OCc1cc(C(O)CNCCc2ccc(N3CCN(c4ccccc4)CC3)cc2)ccc1O` (racemic), the EC50 was 200 nM.
The same measure, in the same setting: then `OCc1cc(C(O)CNCCc2ccc(N3CCC(c4ccccc4)CC3)cc2)ccc1O` (racemic), with 398 nM; and `OCc1cc(C(O)CNCCc2ccc(NCc3ccc(Cl)c(Cl)c3)cc2)ccc1O` (racemic), with 1580 nM; and `OCc1cc(C(O)CNCCc2ccc(NCc3ccc4ccccc4c3)cc2)ccc1O` (racemic), with 158 nM.
The same measure, in the same setting: then `COc1ccc(CN2CCN(c3ccc(CCNCC(O)c4ccc(O)c(CO)c4)cc3)CC2)cc1` (racemic), with 631 nM; and `CC(C)Oc1ccc(Nc2ccc(CCNCC(O)c3ccc(O)c(CO)c3)cc2)cc1` (racemic), with 2.51 nM.
As for `OCc1cc(C(O)CNCCc2ccc(Nc3cccc(-c4ccccc4)c3)cc2)ccc1O` (racemic), the EC50 is 2 nM.
As for `OCc1cc(C(O)CNCCc2ccc(Br)cc2)ccc1O` (racemic), the EC50 was 25.1 nM.
On the same count and under the same terms, then `OCc1cc(C(O)CNCCc2ccc(Nc3ccc(Oc4ccccc4)cc3)cc2)ccc1O` (racemic), with 20 nM.
On the same count and under the same terms, then `O=C(Cc1ccccc1)NC1CCN(c2ccc(CCNCC(O)c3ccc(O)c(CO)c3)cc2)CC1` (racemic), with 1000 nM; and `CC(=O)N1CCN(c2ccc(CCNCC(O)c3ccc(O)c(CO)c3)cc2)CC1` (racemic), with 10000 nM; and `OCc1cc(C(O)CNCCc2ccc(Nc3ccc(O)cc3)cc2)ccc1O` (racemic), with 200 nM.
On the same count and under the same terms, then `OCc1cc(C(O)CNCCc2ccc(N3CCC(Cc4ccccc4)CC3)cc2)ccc1O` (racemic), with 501 nM.
Regarding `COc1ccc(Nc2ccc(CCNCC(O)c3ccc(O)c(CO)c3)cc2)cc1` (racemic), the EC50 was 3.98 nM.
Still for that read-out and setting: then `OCc1cc(C(O)CNCCc2ccc(N3CCC(CCCc4ccccc4)CC3)cc2)ccc1O` (racemic), with 1580 nM; and `COC(=O)c1ccc(Nc2ccc(CCNCC(O)c3ccc(O)c(CO)c3)cc2)cc1` (racemic), with 6.31 nM.

Another assay has as its target Beta-1 adrenergic receptor (Homo sapiens, UniProt P08588). The assay is described as follows: Displacement of [3H]dihydroalprenolol from beta1 receptor (unknown origin) by liquid scintillation counting and cell based assay. In general terms: Displacement assays read how much labelled ligand stays bound in the presence of the test substance.
`OCc1cc(C(O)CNCCc2ccc(N3CCN(c4ccccc4)CC3)cc2)ccc1O` (racemic) had an inhibitory constant (Ki) of more than 10000 nM.
On the same count and under the same terms, then `OCc1cc(C(O)CNCCc2ccc(N3CCC(c4ccccc4)CC3)cc2)ccc1O` (racemic), with more than 10000 nM; and `OCc1cc(C(O)CNCCc2ccc(NCc3ccc(Cl)c(Cl)c3)cc2)ccc1O` (racemic), with more than 10000 nM.
The same measure, in the same setting: for `OCc1cc(C(O)CNCCc2ccc(NCc3ccc4ccccc4c3)cc2)ccc1O` (racemic) the value was more than 10000 nM; for `COc1ccc(CN2CCN(c3ccc(CCNCC(O)c4ccc(O)c(CO)c4)cc3)CC2)cc1` (racemic), more than 10000 nM.
On the same count and under the same terms, for `CC(C)Oc1ccc(Nc2ccc(CCNCC(O)c3ccc(O)c(CO)c3)cc2)cc1` (racemic) the value was 15800 nM; for `OCc1cc(C(O)CNCCc2ccc(Nc3cccc(-c4ccccc4)c3)cc2)ccc1O` (racemic), 12600 nM; for `OCc1cc(C(O)CNCCc2ccc(Br)cc2)ccc1O` (racemic), more than 10000 nM.
For `OCc1cc(C(O)CNCCc2ccc(Nc3ccc(Oc4ccccc4)cc3)cc2)ccc1O` (racemic), the Ki is 6310 nM.
Still for that read-out and setting: then `O=C(Cc1ccccc1)NC1CCN(c2ccc(CCNCC(O)c3ccc(O)c(CO)c3)cc2)CC1` (racemic), with more than 10000 nM; and `CC(=O)N1CCN(c2ccc(CCNCC(O)c3ccc(O)c(CO)c3)cc2)CC1` (racemic), with more than 10000 nM; and `OCc1cc(C(O)CNCCc2ccc(Nc3ccc(O)cc3)cc2)ccc1O` (racemic), with 39800 nM.
Still for that read-out and setting: then `OCc1cc(C(O)CNCCc2ccc(N3CCC(Cc4ccccc4)CC3)cc2)ccc1O` (racemic), with 79400 nM.
Still for that read-out and setting: then `COc1ccc(Nc2ccc(CCNCC(O)c3ccc(O)c(CO)c3)cc2)cc1` (racemic), with 31600 nM; and `OCc1cc(C(O)CNCCc2ccc(N3CCC(CCCc4ccccc4)CC3)cc2)ccc1O` (racemic), with 126000 nM.
Regarding `COC(=O)c1ccc(Nc2ccc(CCNCC(O)c3ccc(O)c(CO)c3)cc2)cc1` (racemic), the affinity, expressed as Ki, was 10000 nM.

The target in a further assay is T1, Beta-2 adrenergic receptor. The assay is described as follows: Displacement of [3H]dihydroalprenolol from beta2 receptor (unknown origin) by liquid scintillation counting and cell based assay.
Consider `OCc1cc(C(O)CNCCc2ccc(N3CCN(c4ccccc4)CC3)cc2)ccc1O` (racemic), for which the affinity corresponds to a Ki of 31600 nM.
On the same count and under the same terms, for `OCc1cc(C(O)CNCCc2ccc(N3CCC(c4ccccc4)CC3)cc2)ccc1O` (racemic) the value was 12600 nM.
On the same count and under the same terms, then `OCc1cc(C(O)CNCCc2ccc(NCc3ccc(Cl)c(Cl)c3)cc2)ccc1O` (racemic), with more than 10000 nM; and `OCc1cc(C(O)CNCCc2ccc(NCc3ccc4ccccc4c3)cc2)ccc1O` (racemic), with more than 10000 nM; and `COc1ccc(CN2CCN(c3ccc(CCNCC(O)c4ccc(O)c(CO)c4)cc3)CC2)cc1` (racemic), with more than 10000 nM.
`CC(C)Oc1ccc(Nc2ccc(CCNCC(O)c3ccc(O)c(CO)c3)cc2)cc1` (racemic) gave a Ki of 100 nM.
Same read-out and setting: then `OCc1cc(C(O)CNCCc2ccc(Nc3cccc(-c4ccccc4)c3)cc2)ccc1O` (racemic), with 316 nM.
Still for that read-out and setting: for `OCc1cc(C(O)CNCCc2ccc(Br)cc2)ccc1O` (racemic) the value was 31600 nM; for `OCc1cc(C(O)CNCCc2ccc(Nc3ccc(Oc4ccccc4)cc3)cc2)ccc1O` (racemic), 316 nM.
The same measure, in the same setting: then `O=C(Cc1ccccc1)NC1CCN(c2ccc(CCNCC(O)c3ccc(O)c(CO)c3)cc2)CC1` (racemic), with more than 10000 nM; and `CC(=O)N1CCN(c2ccc(CCNCC(O)c3ccc(O)c(CO)c3)cc2)CC1` (racemic), with more than 10000 nM.
With `OCc1cc(C(O)CNCCc2ccc(Nc3ccc(O)cc3)cc2)ccc1O` (racemic), the Ki is 1580 nM.
Same read-out and setting: for `OCc1cc(C(O)CNCCc2ccc(N3CCC(Cc4ccccc4)CC3)cc2)ccc1O` (racemic) the value was 15800 nM; for `COc1ccc(Nc2ccc(CCNCC(O)c3ccc(O)c(CO)c3)cc2)cc1` (racemic), 1260 nM; for `OCc1cc(C(O)CNCCc2ccc(N3CCC(CCCc4ccccc4)CC3)cc2)ccc1O` (racemic), 200000 nM.
Still for that read-out and setting: for `COC(=O)c1ccc(Nc2ccc(CCNCC(O)c3ccc(O)c(CO)c3)cc2)cc1` (racemic) the value was 251 nM.

By EC50 is commonly meant the concentration giving half of the maximal effect. In general, Ki refers to a measure of affinity in units of concentration, obtained from inhibition or displacement.
